ChEMBL document CHEMBL3885861, “Open TG-GATES”

Organism: Rattus norvegicus
Experiment: Open TG-GATES - Regimen: Daily Repeat
Assay type: toxicity, organism-based, Sprague-Dawley
Set-up: regimen Daily Repeat, gender Male, age 6 weeks
Settings: in vivo, po, 30 mg/kg, route gavage, dose level Low; for APTT / Bas / Eos / Fbg / Hb / Ht / Lym / MCH / MCHC / MCV / Mono / Neu / PT / Plat / RBC / Ret / WBC: tissue Blood; for KIDNEY_L / KIDNEY_R / KIDNEY_TOTAL: tissue Kidney; for LIVER: tissue Liver; for ALP / ALT / AST / BUN / CRE / DBIL / GLC / IP / K / LDH / Na / PL / RALB / TBIL / TC / TG / TP / gamma-GTP: tissue Plasma

`Clc1ccccc1CN1CCc2sccc2C1` [TICLOPIDINE] showed a TERMINAL_BW (72 h, time 3 day) of 232 g, an APTT (72 h, time 3 day) of 19.7 s and a Bas (72 h, time 3 day) of 0.6%. The Eos (72 h, time 3 day) was 1%, the Fbg (72 h, time 3 day) was 223.6 mg/dL and the Hb (72 h, time 3 day) was 13.6 g/dL. The Ht (72 h, time 3 day) was 38.5%, the Lym (72 h, time 3 day) was 74.2% and the MCH (72 h, time 3 day) was 21.5 pg. For the same molecule, the MCHC (72 h, time 3 day) was 35.2%, the MCV (72 h, time 3 day) was 61.1 fL and the Mono (72 h, time 3 day) was 3%. It also gave a Neu (72 h, time 3 day) of 20.2%, a PT (72 h, time 3 day) of 11.6 s and a Plat (72 h, time 3 day) of 129 x10_4/uL. The RBC (72 h, time 3 day) was 631.6 x10_4/ul, the Ret (72 h, time 3 day) was 6.2% and the WBC (72 h, time 3 day) was 88 x10_2/uL. The KIDNEY_L (72 h, time 3 day) was 1 g, the KIDNEY_R (72 h, time 3 day) was 1 g and the KIDNEY_TOTAL (72 h, time 3 day) was 2 g. For the same molecule, the LIVER (72 h, time 3 day) was 11.3 g, the ALP (72 h, time 3 day) was 1106 IU/L and the ALT (72 h, time 3 day) was 36.4 IU/L. It also gave an AST (72 h, time 3 day) of 67.8 IU/L, a BUN (72 h, time 3 day) of 14.8 mg/dL and a CRE (72 h, time 3 day) of 0.4 mg/dL. The DBIL (72 h, time 3 day) was 0.072 mg/dL, the GLC (72 h, time 3 day) was 212 mg/dL and the IP (72 h, time 3 day) was 7.5 mg/dL. For the same molecule, the K (72 h, time 3 day) was 4.1 meq/L, the LDH (72 h, time 3 day) was 163.6 IU/L and the Na (72 h, time 3 day) was 142 meq/L. It also gave a PL (72 h, time 3 day) of 155.8 mg/dL, an RALB (72 h, time 3 day) of 3.4 g/dL and a TBIL (72 h, time 3 day) of 0.1 mg/dL. It also gave a TC (72 h, time 3 day) of 75.4 mg/dL, a TG (72 h, time 3 day) of 100.8 mg/dL and a TP (72 h, time 3 day) of 5.6 g/dL. For the same molecule, the gamma-GTP (72 h, time 3 day) was 1 IU/L, the TERMINAL_BW ([…], time 7 day) was 262.3 g and the TERMINAL_BW ([…], time 14 day) was 314 g. The TERMINAL_BW ([…], time 28 day) was 386.1 g, the APTT ([…], time 7 day) was 18.1 s and the Bas ([…], time 7 day) was 0.8%. The Eos ([…], time 7 day) was 1%, the Fbg ([…], time 7 day) was 231.2 mg/dL and the Hb ([…], time 7 day) was 14.1 g/dL. For the same molecule, the Ht ([…], time 7 day) was 39.3%, the Lym ([…], time 7 day) was 76% and the MCH ([…], time 7 day) was 21.3 pg. For the same molecule, the MCHC ([…], time 7 day) was 35.7%, the MCV ([…], time 7 day) was 59.7 fL and the Mono ([…], time 7 day) was 3.2%. It also gave a Neu ([…], time 7 day) of 18.2%, a PT ([…], time 7 day) of 11.2 s and a Plat ([…], time 7 day) of 117.8 x10_4/uL. For the same molecule, the RBC ([…], time 7 day) was 658.6 x10_4/ul, the Ret ([…], time 7 day) was 5.8% and the WBC ([…], time 7 day) was 104.1 x10_2/uL. The APTT ([…], time 14 day) was 21.4 s, the Bas ([…], time 14 day) was 0.8% and the Eos ([…], time 14 day) was 0.8%. It also gave a Fbg ([…], time 14 day) of 221.2 mg/dL, a Hb ([…], time 14 day) of 14.1 g/dL and a Ht ([…], time 14 day) of 39.2%. For the same molecule, the Lym ([…], time 14 day) was 78.6%, the MCH ([…], time 14 day) was 21.2 pg and the MCHC ([…], time 14 day) was 36.1%. The MCV ([…], time 14 day) was 58.7 fL, the Mono ([…], time 14 day) was 2.6% and the Neu ([…], time 14 day) was 16.8%. The PT ([…], time 14 day) was 11.6 s, the Plat ([…], time 14 day) was 116.9 x10_4/uL and the RBC ([…], time 14 day) was 668.2 x10_4/ul. For the same molecule, the Ret ([…], time 14 day) was 4.7%, the WBC ([…], time 14 day) was 124.8 x10_2/uL and the APTT ([…], time 28 day) was 18 s. The Bas ([…], time 28 day) was 0.6%, the Eos ([…], time 28 day) was 1.2% and the Fbg ([…], time 28 day) was 223.6 mg/dL. For the same molecule, the Hb ([…], time 28 day) was 14.9 g/dL, the Ht ([…], time 28 day) was 40.4% and the Lym ([…], time 28 day) was 82%. For the same molecule, the MCH ([…], time 28 day) was 19.9 pg, the MCHC ([…], time 28 day) was 37% and the MCV ([…], time 28 day) was 53.7 fL. For the same molecule, the Mono ([…], time 28 day) was 2%, the Neu ([…], time 28 day) was 13.8% and the PT ([…], time 28 day) was 11.7 s. For the same molecule, the Plat ([…], time 28 day) was 106 x10_4/uL, the RBC ([…], time 28 day) was 752.8 x10_4/ul and the Ret ([…], time 28 day) was 2.9%. The WBC ([…], time 28 day) was 115.9 x10_2/uL, the KIDNEY_L ([…], time 7 day) was 1.1 g and the KIDNEY_R ([…], time 7 day) was 1.1 g. It also gave a KIDNEY_TOTAL ([…], time 7 day) of 2.2 g, a KIDNEY_L ([…], time 14 day) of 1.3 g and a KIDNEY_R ([…], time 14 day) of 1.2 g. The KIDNEY_TOTAL ([…], time 14 day) was 2.5 g, the KIDNEY_L ([…], time 28 day) was 1.3 g and the KIDNEY_R ([…], time 28 day) was 1.3 g. The KIDNEY_TOTAL ([…], time 28 day) was 2.7 g, the LIVER ([…], time 7 day) was 12.2 g and the LIVER ([…], time 14 day) was 14.3 g. The LIVER ([…], time 28 day) was 15.6 g, the ALP ([…], time 7 day) was 861.2 IU/L and the ALT ([…], time 7 day) was 38.4 IU/L. For the same molecule, the AST ([…], time 7 day) was 71.8 IU/L, the BUN ([…], time 7 day) was 15.4 mg/dL and the CRE ([…], time 7 day) was 0.4 mg/dL. The DBIL ([…], time 7 day) was 0.068 mg/dL, the GLC ([…], time 7 day) was 204.4 mg/dL and the IP ([…], time 7 day) was 7.6 mg/dL. It also gave a K ([…], time 7 day) of 3.9 meq/L, an LDH ([…], time 7 day) of 167.6 IU/L and a Na ([…], time 7 day) of 142.4 meq/L. The PL ([…], time 7 day) was 150.8 mg/dL, the RALB ([…], time 7 day) was 3.5 g/dL and the TBIL ([…], time 7 day) was 0.1 mg/dL. It also gave a TC ([…], time 7 day) of 78.4 mg/dL, a TP ([…], time 7 day) of 5.7 g/dL and a gamma-GTP ([…], time 7 day) of 1 IU/L. It also gave an ALP ([…], time 14 day) of 887.6 IU/L, an ALT ([…], time 14 day) of 36.4 IU/L and an AST ([…], time 14 day) of 68.8 IU/L. The BUN ([…], time 14 day) was 16.8 mg/dL, the CRE ([…], time 14 day) was 0.4 mg/dL and the DBIL ([…], time 14 day) was 0.058 mg/dL. The GLC ([…], time 14 day) was 225.4 mg/dL, the IP ([…], time 14 day) was 7.7 mg/dL and the K ([…], time 14 day) was 4.2 meq/L. The LDH ([…], time 14 day) was 174.2 IU/L, the Na ([…], time 14 day) was 142.2 meq/L and the PL ([…], time 14 day) was 154.8 mg/dL. For the same molecule, the RALB ([…], time 14 day) was 3.3 g/dL, the TBIL ([…], time 14 day) was 0.1 mg/dL and the TC ([…], time 14 day) was 74.4 mg/dL. It also gave a TG ([…], time 14 day) of 120.6 mg/dL, a TP ([…], time 14 day) of 5.7 g/dL and a gamma-GTP ([…], time 14 day) of 1 IU/L. The ALP ([…], time 28 day) was 647.4 IU/L, the ALT ([…], time 28 day) was 37 IU/L and the AST ([…], time 28 day) was 64.2 IU/L. For the same molecule, the BUN ([…], time 28 day) was 15.8 mg/dL, the CRE ([…], time 28 day) was 0.5 mg/dL and the DBIL ([…], time 28 day) was 0.07 mg/dL. The GLC ([…], time 28 day) was 200.8 mg/dL, the IP ([…], time 28 day) was 7.2 mg/dL and the K ([…], time 28 day) was 3.8 meq/L. It also gave an LDH ([…], time 28 day) of 145 IU/L, a Na ([…], time 28 day) of 142 meq/L and a PL ([…], time 28 day) of 158.4 mg/dL. It also gave an RALB ([…], time 28 day) of 3.5 g/dL, a TBIL ([…], time 28 day) of 0.1 mg/dL and a TC ([…], time 28 day) of 78.4 mg/dL. The TG ([…], time 28 day) was 133.8 mg/dL, the TP ([…], time 28 day) was 5.8 g/dL and the gamma-GTP ([…], time 28 day) was 1 IU/L.
